The source of these data is article PMC10051454, “Synthesis of Schiff Bases Containing Phenol Rings and Investigation of Their Antioxidant Capacity, Anticholinesterase, Butyrylcholinesterase, and Carbonic Anhydrase Inhibition Properties” (Pharmaceutics, 2023).

One test concerns the target AChE (Homo sapiens, UniProt P22303). Put plainly: biochemical. As to conditions: for IC50: read-out: IC50 AChE. The procedure:
(§1) Acetylthiocholine iodide/butyrylthiocholine iodide (AChI)/BChI) and 5,5′-dithiobis(2-nitro-benzoic acid) (DTNB) were used as the substrate pattern for both cholinergic reactions. […] Then, the samples were incubated at 25 °C for 15 min, and 50 μL of DTNB solution (0.5 mM,) was transferred.

The target of the next test is BChE (Homo sapiens, UniProt P06276). Put plainly: biochemical. As to conditions: read-out: IC50 BChE. The procedure:
as §1

The target in a further test is hCA II (Homo sapiens, UniProt P00918). Put plainly: hCA II inhibition, esterase assay (Verpoorte). The following applies: read-out: IC50 hCA II. In kind it is biochemical.
Test [1] can be described thus: Fe3+-TPTZ complex reducing ability (absorbance 593 nm). As to conditions: 30 µg/mL; absorbance at 593 nm. Here is the method: The Fe^3+-TPTZ complex reducing ability of Schiff bases (10–15) and hydrazineylidene derivatives (16 and 17) was realized according to a previous study. For this, 2.25 mL of TPTZ solution (10 mM in 40 mM HCl) was freshly prepared, then added to 2.5 mL of acetate buffer (0.3 M, pH 3.6) and 2.25 mL of FeCl3 solution (20 mM). Then, different concentrations of Schiff bases (10–15) and hydrazineylidene derivatives (16 and 17) were transferred and incubated at 37 °C for 30 min. Finally, the absorbance values of the reducing power of Schiff bases (10–15) and hydrazineylidene derivatives (16 and 17) and standards were spectrophotometrically measured at 593 nm.

Test [2] in a line: Fe3+ reducing ability (ferricyanide method, absorbance 700 nm). The following applies: 30 µg/mL; absorbance at 700 nm. Here is the method: The Fe^3+ reducing ability of Schiff bases (10–15) and hydrazineylidene derivatives (16 and 17) were tested according to our prior studies. For this purpose, various concentrations of compounds (10–17) were transferred into test tubes, and 2.5 mL of phosphate buffer (0.2 M, pH 6.6) and 2.5 mL (1%) of potassium ferricyanide [K3Fe(CN)6] solutions were added. Then, the mixture was vortexed and incubated at 50 °C for 20 min. A portion of trichloroacetic acid (2.5 mL, 10%) was added. Then, 2.5 mL of upper layers of the solutions were mixed with 2.5 mL distilled water and 0.5 mL FeCl3 (0.1%). The absorbance values of the reducing effects of compounds (10–17) and standards were spectrophotometrically recorded at 700 nm.

Test [3] is described as follows: ABTS radical cation scavenging. Here is the method: The ABTS radical cation scavenging assay was used as a way to calculate antioxidant capacity based on this radical scavenging ability. Firstly, an aqueous solution of ABTS (7.0 mM) was oxidized by oxidants such as K2S2O8 (2.5 mM) for the production of its radical cation (ABTS^•+). […] Then, 1 mL of ABTS^•+ solution was added to 3 mL Schiff base (10–15) and hydrazineylidene derivative (16 and 17) solutions at different concentrations (10–30 μg/mL).

Test [4] can be described thus: Cu2+ reducing ability (neocuproine method, absorbance 450 nm). As to conditions: 30 µg/mL; absorbance at 450 nm. The procedure: The Cu^2+ reducing ability of Schiff bases (10–15) and hydrazineylidene derivatives (16 and 17) were detected according to a prior study. For this purpose, 0.25 mL of CuCl2 solution (10 mM), 0.25 mL of ethanolic neocuproine solution (7.5 × 10^−3 M), and 250 μL of NH4Ac buffer solution (1.0 M) in different concentrations (10–30 μg/mL) were transferred to test tubes containing Schiff base (10–15) and hydrazineylidene derivative (16 and 17) samples. The total volume was made up to 2 mL with distilled water, and their absorbance values were recorded at 450 nm after 30 min of incubation.

In test [5] the target is T1, hCA I (Homo sapiens, UniProt P00915).
From the text: (§2) Both isoforms’ activity was spectrophotometrically determined according to the Verpoorte assay [47]. […] All experiments of the CA inhibition assay were repeated three times and the results are given as the arithmetic mean of these repetitions.
In test [6] the target is T1, hCA I. Put plainly: biochemical.
From the text: as §2
Test [7] can be described thus: DPPH radical scavenging (Blois method). The following applies: half maximal scavenging concentration. Here is the method:
DPPH· and ABTS^•+ scavenging methods are the most widely used spectrophotometric methods to determine the antioxidant capacity of newly synthesized compounds. The DPPH‧ scavenging effect of Schiff bases (10–15) and hydrazineylidene derivatives (16 and 17) was realized according to the Blois method. Briefly, 1 mL of DPPH^• solution (0.1 mM), which was prepared in ethanol and was a violet/purple color […], was added to the Schiff base (10–15) and hydrazineylidene derivative (16 and 17) samples at different concentrations (10–30 μg/mL). Then, they were incubated at room temperature for 30 min and their absorbance values were recorded at 517 nm.
For orientation: Loss of DPPH colour is used to gauge radical scavenging.

Where “and” joins values, the source holds several entries; their conditions need not be identical. Identical values can stand only once.

T1 sequence (P00915 whole entry): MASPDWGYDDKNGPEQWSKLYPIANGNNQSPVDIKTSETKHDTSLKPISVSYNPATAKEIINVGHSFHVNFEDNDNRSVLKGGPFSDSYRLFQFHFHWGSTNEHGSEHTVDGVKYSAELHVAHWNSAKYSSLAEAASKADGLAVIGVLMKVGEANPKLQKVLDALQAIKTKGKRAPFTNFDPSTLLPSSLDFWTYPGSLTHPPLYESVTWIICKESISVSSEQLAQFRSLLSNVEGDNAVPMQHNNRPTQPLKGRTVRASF
Chain of AChE (P22303 32-614): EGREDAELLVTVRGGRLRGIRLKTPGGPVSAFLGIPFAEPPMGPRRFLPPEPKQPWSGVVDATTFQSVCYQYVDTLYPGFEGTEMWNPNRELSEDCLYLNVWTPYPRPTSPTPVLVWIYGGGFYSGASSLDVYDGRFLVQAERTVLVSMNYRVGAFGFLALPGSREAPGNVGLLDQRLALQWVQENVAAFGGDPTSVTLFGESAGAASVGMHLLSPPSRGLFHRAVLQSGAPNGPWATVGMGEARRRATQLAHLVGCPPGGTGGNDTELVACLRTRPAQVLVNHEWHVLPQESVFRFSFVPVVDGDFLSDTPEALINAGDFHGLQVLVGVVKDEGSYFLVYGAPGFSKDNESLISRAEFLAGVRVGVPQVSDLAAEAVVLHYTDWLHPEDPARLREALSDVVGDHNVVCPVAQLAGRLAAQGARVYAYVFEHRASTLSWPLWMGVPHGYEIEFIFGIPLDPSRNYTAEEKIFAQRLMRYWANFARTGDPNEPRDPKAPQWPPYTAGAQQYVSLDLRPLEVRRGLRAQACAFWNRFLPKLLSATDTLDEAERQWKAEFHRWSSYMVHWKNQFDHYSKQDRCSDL
Chain of BChE (P06276 29-602): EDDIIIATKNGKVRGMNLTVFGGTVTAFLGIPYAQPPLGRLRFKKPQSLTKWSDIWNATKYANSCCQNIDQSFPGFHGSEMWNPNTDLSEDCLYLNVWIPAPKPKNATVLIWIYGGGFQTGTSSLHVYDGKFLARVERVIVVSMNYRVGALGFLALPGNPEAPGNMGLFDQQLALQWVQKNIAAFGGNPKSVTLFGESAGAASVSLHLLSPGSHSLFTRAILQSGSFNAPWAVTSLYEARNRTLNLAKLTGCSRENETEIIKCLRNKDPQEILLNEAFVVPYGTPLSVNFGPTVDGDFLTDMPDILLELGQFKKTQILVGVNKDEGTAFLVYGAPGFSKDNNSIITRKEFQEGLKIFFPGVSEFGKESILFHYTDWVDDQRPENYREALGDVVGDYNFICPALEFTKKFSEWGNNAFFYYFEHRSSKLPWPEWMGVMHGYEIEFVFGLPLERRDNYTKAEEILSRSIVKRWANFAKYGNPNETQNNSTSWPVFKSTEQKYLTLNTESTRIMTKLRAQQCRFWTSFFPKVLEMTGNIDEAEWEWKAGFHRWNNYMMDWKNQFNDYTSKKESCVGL
From the text for hCA II: as §2

For the compound `COc1ccc(/C=N/c2ccc(N(C)C)cc2)cc1O` [Compound 10, (E)-5-(((4-(Dimethylamino)phenyl)imino)methyl)-2-methoxyphenol], the “Selectivity Index (AChE/BChE)” value at AChE was 1.115. The IC50 (as a rule, the point on the concentration scale where inhibition reaches its midpoint) on AChE turned out to be 26.7 nM; on BChE it was 23.9 nM; on hCA II, 131 nM; against hCA I [6], 66 nM. The “Fe^3+-TPTZ Reducing λ593” value in test [1] is listed as 2.076 ± 0.004 absorbance. Besides, the “Fe^3+ Reducing λ700” value in test [2] worked out at 2.827 ± 0.016 absorbance. Moreover, the “ABTS^•+ Scavenging IC50” value in [3] is 14.437 µg/mL and 14.43 µg/mL. Also, the “Cu^2+ Reducing λ450” value in test [4] came out at 2.176 ± 0.044 absorbance. Further, on hCA I [5], the “Selectivity Index (hCA I/hCA II)” value is 0.372. Besides, in test [7], the “DPPH^• Scavenging IC50” value is 16.902 µg/mL and 16.90 µg/mL.
For the compound `COc1ccc(/C=N/Cc2ccccc2)cc1O` [Compound 15, (E)-5-((Benzylimino)methyl)-2-methoxyphenol], the “Selectivity Index (AChE/BChE)” value at AChE was 0.704. The IC50 was 25.7 nM at AChE, 36.5 nM at BChE, 139 nM on hCA II and 99 nM on hCA I [6]. For the same compound, in [1], the “Fe^3+-TPTZ Reducing λ593” value is 0.646 ± 0.034 absorbance. Further, in [2], the “Fe^3+ Reducing λ700” value was determined as 0.363 ± 0.021 absorbance. The “ABTS^•+ Scavenging IC50” value in test [3] is 23.896 µg/mL and 23.89 µg/mL. Besides, the “Cu^2+ Reducing λ450” value in [4] came to 0.803 ± 0.013 absorbance. Also, the “Selectivity Index (hCA I/hCA II)” value on hCA I [5] turned out to be 0.521. For the same compound, the “DPPH^• Scavenging IC50” value in test [7] was 99.01 µg/mL.
